# Test results as given in patent US11697648B2, “Fused pyrimidine pyridinone compounds as JAK inhibitors” (THERAVANCE BIOPHARMA R&D IP, LLC, priority 2019, dated 2023).
# Tests used:
# JAK3 = JAK3 (Homo sapiens (Human), UniProt P52333); experiment: Biochemical JAK3 kinase assay (LanthaScreen); settings: for JAK3 (pKi)-JAK1 (pKi): selectivity JAK3 over JAK1, difference of pKi
# Procedure, shortened: (§1)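 GST-JAK + GFP-STAT1 peptide, HEPES pH 7.5/MgCl2/EGTA/Brij-35 buffer; cpd preincubation 1 h RT; ATP start, 1 h RT; stop with 10 mM EDTA + 2 nM Tb-anti-pSTAT1; TR-FRET 520/495. 4-parameter IC50 → pKi (Cheng-Prusoff).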
# [1] = Colon and plasma mouse pharmacokinetics; format: in vivo; settings: mouse, colon tissue / plasma; male Balb/c mice, 10 mg/kg PO; ratio of the colon AUC to the plasma AUC
# Protocol: Assay 5: Colon and Plasma Mouse Pharmacokinetics
# To 6 male Balb/c mice was administered 10 mg/kg of compound in 1% HPMC+0.1% Tween-80 by PO administration. At 0.5, 2 and 6 hours after dose administration, animals were anesthetized, and terminal blood samples were collected by cardiac puncture, followed by collection of colon contents and colon tissue.
# Blood samples were collected into K2EDTA and stored on wet ice until processed to plasma by centrifugation (12000 rpm at 4° C.). Plasma samples were transferred to cluster tubes and placed on dry ice prior to freezer storage. The colon contents from each animal were collected at each terminal blood collection time point. The colon tissues were flushed with saline and patted dry. The colon and colon content tissues were homogenized using sterile water containing 0.1% formic acid 9:1 (water:tissue, v/w). The homogenized tissues and colon contents were transferred to cluster tubes and placed on dry ice prior to freezer storage. All samples were analyzed using LC/MS/MS against analytical standards.
# The composite pharmacokinetic parameters of the compounds were determined by non-compartmental analysis using Phoenix WinNonlin Version 6 (Certara, St. Louis, Mo.) and using mean values from 2 animals/time point. For plasma concentrations below the quantification limit (BQL), the lowest concentration measurable or the BLOQ (below limit of quantification) was used.
# A colon to plasma ratio was determined as the ratio of the colon AUC to the plasma AUC.
# JAK1 = JAK1 (Homo sapiens (Human), UniProt P23458); experiment: Biochemical JAK1 kinase assay (LanthaScreen)
# Procedure, shortened: as §1
# JAK2 = JAK2 (Homo sapiens (Human), UniProt O60674); experiment: Biochemical JAK2 kinase assay (LanthaScreen)
# Procedure, shortened: as §1
# Tyk2 = Tyk2 (Homo sapiens (Human), UniProt P29597); experiment: Biochemical Tyk2 kinase assay (LanthaScreen)
# Procedure, shortened: as §1
# Caco-2 cell monolayers = experiment: Caco-2 permeation assay; format: in vitro ADME; settings: 5 μM, A-B direction, with Verapamil (25 μM)
# Procedure, shortened: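 Passive A-to-B permeability with P-gp inhibited by verapamil (25 μM); compound at 5 μM, n=2. Both compartments sampled at t0 and t120 and quantified by LC-MS/MS, giving apparent permeability in cm/sec from flux, area and concentration.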
# [2] = test system: IL-2 stimulated STAT5 phosphorylation in Tall-1 human T cell line (JAK3); experiment: Cellular JAK3 potency assay: inhibition of IL-2 stimulated pSTAT5 in Tall-1 T cells; format: cell-based; settings: IL-2 stimulated pSTAT5, Tall-1 T cells
# Procedure, shortened: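 AlphaLISA SureFire Ultra measures STAT5 Tyr694/699 phosphorylation in lysed Tall-1 human T cells. Cells were exposed to compound for 1 h at 37 °C before a 30 min IL-2 challenge (300 ng/ml final). Values are pIC50 means with standard deviation from signal-versus-concentration curves.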
# Chain of JAK2 (O60674 whole entry): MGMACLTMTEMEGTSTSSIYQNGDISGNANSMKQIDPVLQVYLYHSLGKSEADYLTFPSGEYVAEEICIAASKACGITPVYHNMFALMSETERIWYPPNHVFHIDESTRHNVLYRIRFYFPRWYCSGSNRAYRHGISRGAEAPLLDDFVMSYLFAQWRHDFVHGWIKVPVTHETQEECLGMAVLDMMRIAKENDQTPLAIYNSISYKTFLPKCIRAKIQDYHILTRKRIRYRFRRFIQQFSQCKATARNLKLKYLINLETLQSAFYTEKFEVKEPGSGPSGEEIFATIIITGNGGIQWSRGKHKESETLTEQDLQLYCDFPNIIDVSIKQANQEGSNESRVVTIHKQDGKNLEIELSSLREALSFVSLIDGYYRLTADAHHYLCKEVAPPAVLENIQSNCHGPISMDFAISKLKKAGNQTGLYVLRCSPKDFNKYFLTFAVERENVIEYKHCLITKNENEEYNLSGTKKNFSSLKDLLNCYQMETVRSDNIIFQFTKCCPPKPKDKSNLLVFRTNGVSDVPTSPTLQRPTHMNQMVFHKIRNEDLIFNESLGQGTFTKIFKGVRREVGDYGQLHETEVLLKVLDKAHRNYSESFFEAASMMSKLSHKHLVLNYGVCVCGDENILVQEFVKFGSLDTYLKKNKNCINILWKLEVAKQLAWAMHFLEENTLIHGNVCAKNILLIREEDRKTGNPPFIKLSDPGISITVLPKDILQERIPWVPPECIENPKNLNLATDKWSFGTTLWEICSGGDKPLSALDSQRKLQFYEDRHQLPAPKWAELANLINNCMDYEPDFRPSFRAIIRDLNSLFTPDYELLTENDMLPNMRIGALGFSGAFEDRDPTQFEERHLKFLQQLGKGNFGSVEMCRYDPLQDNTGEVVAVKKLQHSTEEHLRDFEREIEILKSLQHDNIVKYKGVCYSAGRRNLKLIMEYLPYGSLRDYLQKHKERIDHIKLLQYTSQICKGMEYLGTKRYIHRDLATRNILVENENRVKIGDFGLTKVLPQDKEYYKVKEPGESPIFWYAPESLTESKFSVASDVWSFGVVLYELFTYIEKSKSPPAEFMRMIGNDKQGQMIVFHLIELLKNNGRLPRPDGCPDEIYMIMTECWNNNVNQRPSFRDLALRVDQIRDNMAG
# Chain of JAK1 (P23458 whole entry): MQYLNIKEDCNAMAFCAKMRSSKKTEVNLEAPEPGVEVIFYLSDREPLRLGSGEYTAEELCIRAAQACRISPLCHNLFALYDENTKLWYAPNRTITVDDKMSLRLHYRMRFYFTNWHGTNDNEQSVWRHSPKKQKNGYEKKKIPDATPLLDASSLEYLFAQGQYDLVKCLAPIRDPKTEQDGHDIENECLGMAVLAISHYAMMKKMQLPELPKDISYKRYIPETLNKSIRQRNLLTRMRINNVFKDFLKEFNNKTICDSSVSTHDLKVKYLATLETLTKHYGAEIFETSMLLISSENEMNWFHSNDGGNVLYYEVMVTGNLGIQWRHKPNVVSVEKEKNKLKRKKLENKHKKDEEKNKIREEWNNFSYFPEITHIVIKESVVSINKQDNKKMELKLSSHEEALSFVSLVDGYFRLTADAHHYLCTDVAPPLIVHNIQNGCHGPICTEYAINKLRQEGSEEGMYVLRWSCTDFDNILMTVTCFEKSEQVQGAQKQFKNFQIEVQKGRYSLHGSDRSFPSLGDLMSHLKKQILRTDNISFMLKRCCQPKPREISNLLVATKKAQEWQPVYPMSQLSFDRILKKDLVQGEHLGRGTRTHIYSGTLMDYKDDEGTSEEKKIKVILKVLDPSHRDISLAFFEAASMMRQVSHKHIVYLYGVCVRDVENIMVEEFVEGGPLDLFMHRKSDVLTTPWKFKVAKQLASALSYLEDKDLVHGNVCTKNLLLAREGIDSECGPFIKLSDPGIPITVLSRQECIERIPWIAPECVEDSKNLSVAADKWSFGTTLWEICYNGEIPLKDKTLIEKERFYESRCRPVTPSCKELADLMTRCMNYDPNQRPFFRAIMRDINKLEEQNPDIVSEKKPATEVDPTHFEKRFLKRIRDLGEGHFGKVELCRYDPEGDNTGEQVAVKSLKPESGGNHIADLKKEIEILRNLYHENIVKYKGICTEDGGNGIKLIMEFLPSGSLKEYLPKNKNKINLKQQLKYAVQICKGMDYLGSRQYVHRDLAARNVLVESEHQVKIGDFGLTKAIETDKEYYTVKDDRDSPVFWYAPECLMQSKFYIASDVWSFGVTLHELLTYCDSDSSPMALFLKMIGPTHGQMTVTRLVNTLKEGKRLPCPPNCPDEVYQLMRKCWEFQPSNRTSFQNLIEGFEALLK
# Chain of Tyk2 (P29597 whole entry): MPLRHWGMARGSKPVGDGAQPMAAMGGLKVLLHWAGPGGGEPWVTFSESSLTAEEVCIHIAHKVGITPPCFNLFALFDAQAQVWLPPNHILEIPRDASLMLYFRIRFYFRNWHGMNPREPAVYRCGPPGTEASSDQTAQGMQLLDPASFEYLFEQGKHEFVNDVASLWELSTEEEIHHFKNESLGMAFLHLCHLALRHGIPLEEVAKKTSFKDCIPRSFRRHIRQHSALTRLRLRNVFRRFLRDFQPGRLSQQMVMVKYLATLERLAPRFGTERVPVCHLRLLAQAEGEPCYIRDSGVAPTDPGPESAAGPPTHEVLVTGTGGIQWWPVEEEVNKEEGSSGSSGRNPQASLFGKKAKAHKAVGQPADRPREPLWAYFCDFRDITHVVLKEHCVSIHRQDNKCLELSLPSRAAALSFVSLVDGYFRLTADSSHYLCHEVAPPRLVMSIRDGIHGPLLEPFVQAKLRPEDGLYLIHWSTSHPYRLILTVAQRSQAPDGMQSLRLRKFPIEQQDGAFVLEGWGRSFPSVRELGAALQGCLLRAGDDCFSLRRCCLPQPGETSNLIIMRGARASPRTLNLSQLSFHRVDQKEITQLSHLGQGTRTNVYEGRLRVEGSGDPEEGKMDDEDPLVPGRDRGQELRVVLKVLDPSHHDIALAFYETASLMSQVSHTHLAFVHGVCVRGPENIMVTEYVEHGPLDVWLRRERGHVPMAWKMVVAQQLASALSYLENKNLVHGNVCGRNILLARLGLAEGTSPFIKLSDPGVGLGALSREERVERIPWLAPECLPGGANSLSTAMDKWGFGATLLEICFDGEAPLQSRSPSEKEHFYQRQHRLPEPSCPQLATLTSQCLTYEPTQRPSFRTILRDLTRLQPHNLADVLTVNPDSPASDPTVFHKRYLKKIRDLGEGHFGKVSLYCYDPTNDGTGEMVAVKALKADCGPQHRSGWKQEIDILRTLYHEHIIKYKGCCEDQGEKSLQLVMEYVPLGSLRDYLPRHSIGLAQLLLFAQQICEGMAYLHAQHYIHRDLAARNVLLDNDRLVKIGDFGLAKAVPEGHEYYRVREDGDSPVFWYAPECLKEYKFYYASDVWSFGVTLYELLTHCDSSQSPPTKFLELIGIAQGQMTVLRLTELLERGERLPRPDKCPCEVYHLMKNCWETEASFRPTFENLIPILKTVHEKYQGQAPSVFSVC
# Chain of JAK3 (P52333 whole entry): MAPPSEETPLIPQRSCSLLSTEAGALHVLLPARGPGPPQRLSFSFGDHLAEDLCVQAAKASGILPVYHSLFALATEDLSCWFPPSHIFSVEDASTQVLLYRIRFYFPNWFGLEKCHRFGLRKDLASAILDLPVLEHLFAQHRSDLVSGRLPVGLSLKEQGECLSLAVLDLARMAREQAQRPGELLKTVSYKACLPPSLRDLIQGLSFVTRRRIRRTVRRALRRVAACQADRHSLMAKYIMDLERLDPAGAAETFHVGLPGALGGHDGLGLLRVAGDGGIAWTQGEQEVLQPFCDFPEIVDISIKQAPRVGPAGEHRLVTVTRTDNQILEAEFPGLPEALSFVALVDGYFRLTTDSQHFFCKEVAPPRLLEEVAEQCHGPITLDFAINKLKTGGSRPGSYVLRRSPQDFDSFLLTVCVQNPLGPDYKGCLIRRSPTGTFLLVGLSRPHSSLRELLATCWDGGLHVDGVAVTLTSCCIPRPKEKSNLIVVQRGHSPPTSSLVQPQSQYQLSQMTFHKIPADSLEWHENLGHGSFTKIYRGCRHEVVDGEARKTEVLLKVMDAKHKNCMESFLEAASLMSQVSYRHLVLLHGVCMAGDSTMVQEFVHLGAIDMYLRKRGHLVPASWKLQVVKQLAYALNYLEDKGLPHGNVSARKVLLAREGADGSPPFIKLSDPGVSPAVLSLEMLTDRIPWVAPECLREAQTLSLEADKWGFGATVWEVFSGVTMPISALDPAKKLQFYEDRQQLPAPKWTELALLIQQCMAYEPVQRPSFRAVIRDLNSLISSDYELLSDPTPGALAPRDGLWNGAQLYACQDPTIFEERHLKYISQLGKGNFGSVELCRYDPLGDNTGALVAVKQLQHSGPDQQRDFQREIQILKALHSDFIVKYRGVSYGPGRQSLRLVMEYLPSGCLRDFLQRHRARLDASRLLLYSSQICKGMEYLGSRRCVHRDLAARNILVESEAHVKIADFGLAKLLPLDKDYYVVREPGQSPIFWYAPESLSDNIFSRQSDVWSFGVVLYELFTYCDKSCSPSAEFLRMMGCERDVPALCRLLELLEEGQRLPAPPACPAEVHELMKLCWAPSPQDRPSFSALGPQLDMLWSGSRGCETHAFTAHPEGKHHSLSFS
Structure (SMILES),JAK 3 (pKi) (JAK3),JAK3 (pKi)-JAK1 (pKi) (JAK3),Kp [1],JAK 1 (pKi) (JAK1),JAK 2 (pKi) (JAK2),Tyk 2 (pKi) (Tyk2),Caco Kp (Caco-2 cell monolayers),Tall-1 (pIC50) [2]
C=CC(=O)N1CCN(CCn2c(=O)ccc3cnc(Nc4ccc(N5CCN(C(C)=O)CC5)cc4)nc32)[C@@H](C)C1 [Example 155],B (B represents pKi value between 9 and 10 (Ki between 1 nM and 0.1 nM)),A (A represents a value of 3 or above),> 1000,E (E represents a pKi value of 7 or below (Ki of 100 nM or above)),E (E represents a pKi value of 7 or below (Ki of 100 nM or above)),E (E represents a pKi value of 7 or below (Ki of 100 nM or above)),A (A represents a value below 5×10^−6 cm/sec),B (B represents a pC50 value between 6.7 (included) and 7.5 (IC50 between 200 nM and 32 nM))
C=CC(=O)N1CC(CCn2c(=O)ccc3cnc(Nc4cnn(CCOC(C)C)c4)nc32)C1 [Example 24],B (B represents pKi value between 9 and 10 (Ki between 1 nM and 0.1 nM)),A (A represents a value of 3 or above),> 100,E (E represents a pKi value of 7 or below (Ki of 100 nM or above)),E (E represents a pKi value of 7 or below (Ki of 100 nM or above)),E (E represents a pKi value of 7 or below (Ki of 100 nM or above)),B (B represents a value between 5×10^−6 and 10×10^−6 cm/sec),B (B represents a pC50 value between 6.7 (included) and 7.5 (IC50 between 200 nM and 32 nM))
C=CC(=O)N1CC(CCn2c(=O)ccc3cnc(Nc4cccc(CN5CCN(C)CC5)c4)nc32)C1 [Example 52],B (B represents pKi value between 9 and 10 (Ki between 1 nM and 0.1 nM)),A (A represents a value of 3 or above),> 100,E (E represents a pKi value of 7 or below (Ki of 100 nM or above)),E (E represents a pKi value of 7 or below (Ki of 100 nM or above)),E (E represents a pKi value of 7 or below (Ki of 100 nM or above)),A (A represents a value below 5×10^−6 cm/sec),B (B represents a pC50 value between 6.7 (included) and 7.5 (IC50 between 200 nM and 32 nM))
C=CC(=O)N1CC(CCn2c(=O)ccc3cnc(Nc4ccc(CCN(C)C)cc4)nc32)C1 [Example 89],B (B represents pKi value between 9 and 10 (Ki between 1 nM and 0.1 nM)),A (A represents a value of 3 or above),> 100,E (E represents a pKi value of 7 or below (Ki of 100 nM or above)),E (E represents a pKi value of 7 or below (Ki of 100 nM or above)),E (E represents a pKi value of 7 or below (Ki of 100 nM or above)),A (A represents a value below 5×10^−6 cm/sec),A (A represents a pIC50 value≥7.5 (IC50≤32 nM))
C=CC(=O)N1CCN(CCn2c(=O)ccc3cnc(Nc4ccc(N5CCN(C(=O)CCSC)CC5)cc4)nc32)[C@@H](C)C1 [Example 171],A (A represents a pKi value≥10 (Ki≤0.1 nM)),A (A represents a value of 3 or above),> 1000,E (E represents a pKi value of 7 or below (Ki of 100 nM or above)),E (E represents a pKi value of 7 or below (Ki of 100 nM or above)),E (E represents a pKi value of 7 or below (Ki of 100 nM or above)),B (B represents a value between 5×10^−6 and 10×10^−6 cm/sec),A (A represents a pIC50 value≥7.5 (IC50≤32 nM))
C=CC(=O)N1CC(CCn2c(=O)ccc3cnc(Nc4ccc(N5CCN(C(=O)N(C)C)CC5)cc4)nc32)C1 [Example 92],B (B represents pKi value between 9 and 10 (Ki between 1 nM and 0.1 nM)),A (A represents a value of 3 or above),> 100,E (E represents a pKi value of 7 or below (Ki of 100 nM or above)),E (E represents a pKi value of 7 or below (Ki of 100 nM or above)),E (E represents a pKi value of 7 or below (Ki of 100 nM or above)),A (A represents a value below 5×10^−6 cm/sec),B (B represents a pC50 value between 6.7 (included) and 7.5 (IC50 between 200 nM and 32 nM))
C=CC(=O)N1CC(CCn2c(=O)ccc3cnc(Nc4ccc(C5=CCN(C)CC5)cc4)nc32)C1 [Example 74],B (B represents pKi value between 9 and 10 (Ki between 1 nM and 0.1 nM)),A (A represents a value of 3 or above),> 100,E (E represents a pKi value of 7 or below (Ki of 100 nM or above)),E (E represents a pKi value of 7 or below (Ki of 100 nM or above)),E (E represents a pKi value of 7 or below (Ki of 100 nM or above)),A (A represents a value below 5×10^−6 cm/sec),B (B represents a pC50 value between 6.7 (included) and 7.5 (IC50 between 200 nM and 32 nM))
C=CC(=O)N1CC(CCn2c(=O)ccc3cnc(Nc4cccc(CN5CCN(C(C)=O)CC5)c4)nc32)C1 [Example 133],A (A represents a pKi value≥10 (Ki≤0.1 nM)),A (A represents a value of 3 or above),> 100,E (E represents a pKi value of 7 or below (Ki of 100 nM or above)),E (E represents a pKi value of 7 or below (Ki of 100 nM or above)),E (E represents a pKi value of 7 or below (Ki of 100 nM or above)),A (A represents a value below 5×10^−6 cm/sec),B (B represents a pC50 value between 6.7 (included) and 7.5 (IC50 between 200 nM and 32 nM))
"C=CC(=O)N1CC(CCn2c(=O)ccc3cnc(Nc4cccc(CN5CCN(S(C)(=O)=O)CC5)c4)nc32)C1 [Example 6, 8-(2-(1-acryloylazetidin-3-yl)ethyl)-2-((3-((4-(methylsulfonyl)piperazin-1-yl)methyl)phenyl)amino)pyrido[2,3-d]pyrimidin-7(8H)-one]",B (B represents pKi value between 9 and 10 (Ki between 1 nM and 0.1 nM)),A (A represents a value of 3 or above),> 100,E (E represents a pKi value of 7 or below (Ki of 100 nM or above)),E (E represents a pKi value of 7 or below (Ki of 100 nM or above)),E (E represents a pKi value of 7 or below (Ki of 100 nM or above)),A (A represents a value below 5×10^−6 cm/sec),B (B represents a pC50 value between 6.7 (included) and 7.5 (IC50 between 200 nM and 32 nM))
C=CC(=O)N1CC(CCn2c(=O)ccc3cnc(Nc4ccc(N(CC)CC)cc4)nc32)C1 [Example 88],A (A represents a pKi value≥10 (Ki≤0.1 nM)),A (A represents a value of 3 or above),> 14,E (E represents a pKi value of 7 or below (Ki of 100 nM or above)),E (E represents a pKi value of 7 or below (Ki of 100 nM or above)),E (E represents a pKi value of 7 or below (Ki of 100 nM or above)),D (D represents a value over 30×10^−6 cm/sec),B (B represents a pC50 value between 6.7 (included) and 7.5 (IC50 between 200 nM and 32 nM))
C=CC(=O)N1CCN(CCn2c(=O)ccc3cnc(Nc4ccc(N5CCN(C(C)=O)CC5)cc4)nc32)CC1 [Example 79],B (B represents pKi value between 9 and 10 (Ki between 1 nM and 0.1 nM)),A (A represents a value of 3 or above),> 1000,E (E represents a pKi value of 7 or below (Ki of 100 nM or above)),E (E represents a pKi value of 7 or below (Ki of 100 nM or above)),E (E represents a pKi value of 7 or below (Ki of 100 nM or above)),A (A represents a value below 5×10^−6 cm/sec),B (B represents a pC50 value between 6.7 (included) and 7.5 (IC50 between 200 nM and 32 nM))
